# Measured values from patent US9561215B2, “BAX-activating cancer therapeutics” (The University of Louisville Research Foundation Inc., priority 2014, dated 2017).
# Columns and labels:
# [1] = system: anti-apoptotic Bcl-2 proteins, including Bcl-2, Bcl-xL, and Bcl-w; conditions: cited from earlier work
# [2] = system: Bak^−/−Bax^−/− MEF cells stably re-expressing Bax, Bak, or the empty vector; assay: Cell death by propidium iodide exclusion in MEF cells re-expressing Bax or Bak; assay type: cell-based; conditions: for rank by activity to induce Bax-dependent apoptosis: rank among the six Bax activator compounds
# Description: (§1) Cell lines: Bak^−/−Bax^−/− murine embryonic fibroblast (MEF) cells expressing the empty vector, Bak or Bax were cultured as described previously. Human non-small cell lung carcinoma A549 and human pancreatic carcinoma Panc-1 were purchased from ATCC (Manassas, Va.). Untransformed and transformed MEF cells were kindly provided by Dr. Wei-Xing Zong. Bax^+/− and Bax^−/− HCT116 cells were obtained from Drs. Bert Vogelstein and Kenneth Kinzler. All cells were cultured at 37° C. in a 5% CO2 incubator as described previously (42). To generate A549 cells with reduced Bax expression or vector control, cells were first infected by Bax shRNA lentiviral particles or control shRNA lentiviral particles (Santa Cruz). Stable cells were obtained by culturing cells in the medium with 10 μg/ml puromycin.
# (§2) Cell death analysis and Chou-Talalay synergism assay: Cell viability was measured by propidium iodide exclusion using flow cytometry (FACSCalibur, Becton Dickinson) as described previously. The synergistic effect between compound 106 and carboplatin or ABT-737 on cell viability was determined by Chou-Talalay median dose effect assay. IC50 of compound 106, carboplatin, and ABT-7373 on a tumor cell line was first determined. Different combinations of drugs at a fixed ratio higher or lower than their IC50 values were added to cells. After incubation for the indicated time, cell viability was examined and Fa was calculated as the ratio between the cell death levels of drug-treated cells and those of untreated control cells. Combination index (CI) was determined by the CompuSyn software (Biosoft, Cambridge, UK).
# The inventors tested candidate agents by first determining whether cytotoxicity was dependent on Bax but not on Bak. Bax^−/−Bak^−/− murine embryonic fibroblast (MEF) cell lines stably re-expressing only Bax or Bak were established (FIG. 3).
# [3] = system: A549 cells with Bax shRNA or control shRNA vector; assay: Cell death in A549 cells with reduced Bax expression or control shRNA; assay type: cell-based, human; conditions: 48 hour incubation
# Description: as §1
# as §2, with “The synergistic effect between compound 106 and carboplatin or ABT-737 on cell viability was determined by Chou-Talalay median dose effect assay.” left out, “Different combinations of drugs at a fixed ratio higher or lower than their IC50 values were added to cells.” left out, “UK). […]” for “UK).”
# [4] = system: Bax^+/− and Bax^−/− HCT116 cells; assay: Cell death in HCT116 cells with or without Bax expression; assay type: cell-based, human; conditions: 48 hour incubation
# Description: as §1
# as §2, with “The synergistic effect between compound 106 and carboplatin or ABT-737 on cell viability was determined by Chou-Talalay median dose effect assay.” left out, “Different combinations of drugs at a fixed ratio higher or lower than their IC50 values were added to cells.” left out, “UK). […]” for “UK).”
# A549 cells = assay: Chou-Talalay synergism assay in A549 cells; assay type: cell-based, human; conditions: compound 106 (80-240 μM) with carboplatin (80-240 μM), constant ratio, 48 hours
# Description: as §2, with “The synergistic effect between compound 106 and carboplatin or ABT-737 on cell viability was determined by Chou-Talalay median dose effect assay.” left out, “Different combinations of drugs at a fixed ratio higher or lower than their IC50 values were added to cells.” left out
# (§3) To explore the potential of compound 106 functioning in combination chemotherapy, the inventors investigated whether compound 106 sensitizes tumor cells to die following simultaneous treatment with a chemotherapeutic drug. Carboplatin is currently used to treat non-small-cell lung cancer and human pancreatic cancer. To investigate whether the cytotoxic effects of compound 106 and carboplatin on human tumor cells were synergistic, the inventors carried out median-effect analysis using the Chou-Talalay method. After 48 hours of treatment, the cell death levels of A549 and PANC-1 cells treated with various concentrations of compound 106 and carboplatin at a constant dose ratio were measured, and the combination index (CI) values were determined.
# PANC-1 cells = assay: Chou-Talalay synergism assay in PANC-1 cells; assay type: cell-based, human; conditions: compound 106 (3.3-240 μM) with carboplatin (3.3-240 μM), constant ratio, 48 hours
# Description: as §2, with “The synergistic effect between compound 106 and carboplatin or ABT-737 on cell viability was determined by Chou-Talalay median dose effect assay.” left out, “Different combinations of drugs at a fixed ratio higher or lower than their IC50 values were added to cells.” left out
# as §3
# Bax = Bax (Homo sapiens, UniProt Q07812); conditions: non-canonical BH3 interaction site; cited from earlier work
# Chain of Bax (Q07812 whole entry, species assumed): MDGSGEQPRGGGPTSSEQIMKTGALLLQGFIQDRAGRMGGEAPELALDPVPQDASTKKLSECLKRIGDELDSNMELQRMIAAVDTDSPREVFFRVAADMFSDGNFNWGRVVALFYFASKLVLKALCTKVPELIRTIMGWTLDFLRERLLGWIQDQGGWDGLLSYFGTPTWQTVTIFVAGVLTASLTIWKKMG
compound,measurement,setting,value
CN(C)CC[C@H](CSc1ccccc1)Nc1ccc(S(=O)(=O)NC(=O)c2ccc(N3CCN(Cc4ccccc4-c4ccc(Cl)cc4)CC3)cc2)cc1[N+](=O)[O-] [ABT-737],binding affinity,[1],bind with high affinity
"CC(C)CN1CC(OCc2cccnc2)CN(C(=O)Cc2ccc3c(c2)OCO3)CC1=O (stereo not drawn) [ZINC14531256, 4-(1,3-benzodioxol-5-ylacetyl)-1-isobutyl-6-(3-pyridinylmethoxy)-1,4-diazepan-2-one]",rank by activity to induce Bax-dependent apoptosis,[2],6
"COc1ccccc1N1CCN(Cn2nc(-c3ccc(F)cc3)n(CC3CCCO3)c2=S)CC1 (stereo not drawn) [ZINC16076241, 5-(4-fluorophenyl)-2-[[4-(2-methoxyphenyl)piperazin-1-yl]methyl]-4-(oxolan-2-ylmethyl)-1,2,4-triazole-3-thione]",rank by activity to induce Bax-dependent apoptosis,[2],5
"CCn1nc(C)c(CN2CCCC(N3CCN(c4ccc(OC)cc4)CC3)C2)c1C (stereo not drawn) [ZINC20110124, 1-{1-[(1-ethyl-3,5-dimethyl-1H-pyrazol-4-yl)methyl]-3-piperidinyl}-4-(4-methoxyphenyl)piperazine]",rank by activity to induce Bax-dependent apoptosis,[2],2
"COc1ccccc1-c1nc2cc(N)cc(C(=O)NC3CCCN(Cc4ccccc4)C3)c2n1C (stereo not drawn) [ZINC 12150973, 5-amino-N-(1-benzyl-3-piperidinyl)-2-(2-methoxyphenyl)-1-methyl-1H-benzimidazole-7-carboxamide]",rank by activity to induce Bax-dependent apoptosis,[2],4
"CSc1ccc(C2N=C3NCN(Cc4cccnc4)CN3c3nc4ccccc4n32)cc1 (stereo not drawn) [ZINC 13638227, 6-(4-(methylthio)phenyl)-2-(pyridin-3-ylmethyl)-2,3,4,6-tetrahydro-1H-benzo[4,5]imidazo[1,2-a][1,3,5]triazino[1,2-c][1,3,5]triazine]",rank by activity to induce Bax-dependent apoptosis,[2],3
"N.N.O=C([O-])C1(C(=O)[O-])CCC1.[Pt+2] [carboplatin, cis-Diammine (1,1-cyclobutanedicarboxylato)platinum(II)]","cell death, reduced Bax expression versus control shRNA",[3],Decrease in Bax expression did not affect killing activities
same,"cell death, Bax expressing versus Bax lacking HCT116 cells",[4],Lack of Bax expression in HCT116 cells did not affect killing activities
"COc1cccc(Cn2nc(C(=O)N3CCCC(O)C3)c3c2CCN(Cc2ccc(C)c(C)c2)C3)c1 (stereo not drawn) [compound 106, 1-{[5-(3,4-dimethylbenzyl)-1-(3-methoxybenzyl)-4,5,6,7-tetrahydro-1H-pyrazolo[4,3-c]pyridin-3-yl]carbonyl}-3-piperidinol]",cytotoxicity dependent on Bax but not on Bak (test of the 46 candidate agents),"[2]; MEF cell lines re-expressing only Bax or Bak, and Bax−/−Bak−/− MEFs",exhibited the highest Bax- and dose-dependent cytotoxicity
same,rank by activity to induce Bax-dependent apoptosis,[2],1
same,combination index (CI),A549 cells,smaller than 1
same,combination index (CI),PANC-1 cells,smaller than 1
CC[C@]1(O)C[C@H]2CN(CCc3c([nH]c4ccccc34)[C@@](C(=O)OC)(c3cc4c(cc3OC)N(C=O)[C@H]3[C@@](O)(C(=O)OC)[C@H](OC(C)=O)[C@]5(CC)C=CCN6CC[C@]43[C@@H]65)C2)C1 [vincristine],"cell death, reduced Bax expression versus control shRNA",[3],Decrease in Bax expression did not affect killing activities
same,"cell death, Bax expressing versus Bax lacking HCT116 cells",[4],Lack of Bax expression in HCT116 cells did not affect killing activities
BAM7,Bax binding and activation,Bax,directly binds Bax and activates Bax by triggering Bax oligomerization
